Measurements: patent EP0557303B1, “N- (2-THENOYLMERCAPTO-3-METHYL)-BUTANOYL]-HOMOCYSTEINE THIOLACTONE, A PROCESS FOR THE PREPARATION THEREOF AND PHARMACEUTICAL COMPOSITIONS CONTAINING IT” (priority 1990, dated 1992)

How the values were obtained:
[1] = target: collagenase from Clostridium Histolyticum; experiment: Collagenase inhibiting activity (method of Appel, substrate N-carbobenzoxy-pro-gly-gly-L-pro-L-alanine); assay type: biochemical; conditions: collagenase type II (Sigma), collagen synthetic peptide substrate
Procedure: The proteolytic activity of collagenase from Clostridium Histolyticum (Sigma, type II) was dosed according to the method by Appel (Method in enzymatic analysis, H.U. Bergmayer Vol. 2, pp. 1058-1063; 1978) using the collagen synthetic peptide N-carbobenzoxy-pro-gly-gly-L-pro-L-alanine as the substrate.

[2] = tested on: arteriosclerotic lesions induced by the diet in the rabbit; experiment: Antiarteriosclerotic activity (procedure of C.T. Cahn, diet-induced lesions); assay type: in vivo; conditions: compound given together with the diet, end of a 12 week treatment
Procedure: The antiarteriosclerotic activity was tested according to the procedure described by C.T. Cahn, Circul. Research, 43, 115, 1975. The procedure consists in verifying any protecting actions of a drug on arteriosclerotic lesions induced by the diet in the rabbit.

Row | Structure (SMILES) | IC50 ([1]; read-out: IC₅₀) [µM] | cholesterol levels [2] | collagen levels in the connective tissue of the aorta intima [2] | elastin levels in the connective tissue of the aorta intima [2] | triglyceride levels [2] | inhibiting activity [1]
1 | CC(C)C(SC(=O)c1cccs1)C(=O)NC1CCSC1=O (stereo not drawn) [MR-2047, N-[(2-thenoylmercapto-3-methyl)-butanoyl]-homocysteine thiolactone] | ~2 | significant reduction | significant reduction | significant reduction | significant reduction | 
2 | CC(SC(=O)c1cccs1)C(=O)NC1CCSC1=O (stereo not drawn) [MR-889, 2-(2-Thenoylthio)-N-(2',3',4',5'-tetrahydro-2'-keto-thiophen-3'-yl)propionyl amide, reference compound] |  |  |  |  |  | almost no inhibiting activity
